{
  "source": "patent US20230020329A1",
  "about": "“Annelated 9-hydroxy-1,8-dioxo-1,3,4,8-tetrahydro-2H-pyrido[1,2-a]pyrazine-7-carboxamides as HIV integrase inhibitors, methods of preparation and application thereof” (priority 2019, published 2023)",
  "data": [
    {"test_system": "HIV-1 (IIIB strain)", "experiment": "Anti-HIV cytoprotection assay (XTT), HIV-1 IIIB in CEM-SS cells", "assay_type": "cell-based", "settings": "Human immunodeficiency virus 1, IIIB, CEM-SS, CEM-SS cell line; read-out: Inhibitory activity (EC50) against HIV-1 (IIIB strain)", "from_the_text": "a) Inhibitory Activity of the Lymphocytropic Virus Strain HIV-1 (IIIB) in the CEM-SS Cell Line.\nThe evaluation was done by ImQuest BioSciences, Inc. (Frederick, Md., USA). CEM-SS cells [Foley G. E. et al. Continuous Culture of Human Lymphoblasts from Peripheral Blood of a Child with Acute Leukemia. Cancer 1965, 18, 522-529] obtained through the NIH AIDS Research and Reference Reagent Program (Manassas, Va., USA) were passaged in T-75 flasks prior to use cell culture medium consisting of RPMI1640 medium (Lonza; Walkersville, Md., USA) supplemented with 10% heat inactivated fetal bovine serum (Gibco; Grand Island, N.Y.), […] L-glutamine (Lonza), […] penicillin (Lonza) and […] streptomycin (Lonza) for antiviral analysis. The CEM-SS cells were kept in RPMI 140 medium supplemented with 10% heat inactivated bovine fetal serum, 2 mM glutamine, 100 U/ml penicillin, and 100 μg/ml streptomycin.\nA lymphocytropic HIV-1 IIIB strain [Popovic, M. et al. Detection, isolation, and continuous production of cytopathic retroviruses (HTLV-III) from patients with AIDS and pre-AIDS. Science. 1984, 224 (4648), 497-500] was chosen for a virus to be analyzed. The virus was obtained through the NIH AIDS Research and Reference Reagents Program and grown in CEM-SS cells to produce a stock virus pool. A pre-titrated aliquot of the virus was removed from the freezer (−80° C.) and allowed to slowly thaw to room temperature in a biological safety cabinet. The virus was diluted in a tissue culture medium so that the amount of virus added in 50 μl per well was sufficient to kill 85 to 95% of the cells 6 days after infection. HIV-1 IIIB was grown and titrated in CEM-SS cells. The inhibitory effect of […] was evaluated in CEM-SS cells as described earlier [Nara, P. L. at al. Simple, rapid, quantitative, syncytium-forming microassay for the detection of human immunodeficiency virus neutralizing antibody. AIDS Res. Hum. Retroviruses 1987, 3, 283-302.] in microtiter plate anti-HIV assays to quantitatively assess the ability of a compound to inhibit HIV-induced cell death. Quantification was carried out using 2,3-bis-(2-methoxy-4-nitro-5-[…])-(2H)-tetrazolium-5-carboxanilide (XTT) tetrazolium, which is metabolized to a stained formazan product through viable […] The compounds given in Table 1 were dissolved at 10 μM in DMSO and stored at −20° C.\nTest materials were evaluated using antiviral assays in triplicate in concentrations of 30 and 10 nM. The compounds shown in table 1 were dissolved at 10 μM in DMSO and stored at −20° C. […] Sixty nanomolar concentrations of each compound (2 times that of the test concentration in the well) were prepared by diluting 10 μM DMSO stock 1:100 in cell culture medium (10 μl of compound added to 990 μl of the medium) followed by 1:10 dilution (10 μl of the compound was added to 90 μl of the medium), then 6 μl was added to 994 μl of the medium; […] μl was added to a 96-well microtiter plate in triplicate to ensure efficacy and one colorimetric well. Twenty nanomolar concentrations of each compound (twice as much as the test concentration in the well) were prepared by diluting 10 μM DMSO with the original 1:100 in cell culture medium (10 μl of the compound added to 990 μl of the medium) followed by diluting […] (10 μl of the compound was added to 900 μl of the medium), then 20 μl was added to 980 μl of the medium; 100 μl was added to a 96-well microtiter plate in triplicate to ensure efficacy and one colorimetric well.\nAzidothymidine (AZT) was purchased from Sigma Aldrich (USA) and evaluated as a positive control compound in an antiviral assay using a six-concentration reaction curve on each assay plate.\nTest compounds were initially evaluated for HIV-1 IIIB strain in CEM-SS cells at test concentrations of 30 and 10 nM. […]", "units": {"EC50": "nM"}, "values": [
      {"smiles": "C[C@H]1CO[C@@H]2Cn3cc(C(=O)NCc4nnc5n4CCCC5)c(=O)c(O)c3C(=O)N12", "note": "[Compound 1.1.61, (3S,11aR)-6-hydroxy-3-methyl-N-(5,6,7,8-tetrahydro[1,2,4]triazolo[4,3-a]pyridin-3-ylmethyl)-5,7-dioxo-2,3,5,7,11,11a-hexahydro[1,3]oxazolo[3,2-a]pyrido[1,2-d]pyrazine-8-carboxamide]", "EC50": "> 30"},
      {"smiles": "C[C@H]1CO[C@@H]2Cn3cc(C(=O)NCc4n[nH]c5c4CCCCC5)c(=O)c(O)c3C(=O)N12", "note": "[Compound 1.1.62, (3S,11aR)-6-hydroxy-N-(1,4,5,6,7,8-hexahydrocyclohepta[c]pyrazol-3-ylmethyl)-3-methyl-5,7-dioxo-2,3,5,7,11,11a-hexahydro[1,3]oxazolo[3,2-a]pyrido[1,2-d]pyrazine-8-carboxamide]", "EC50": "2 to 10"},
      {"smiles": "C[C@H]1CO[C@@H]2Cn3cc(C(=O)NCc4nc5c(s4)CCCCC5)c(=O)c(O)c3C(=O)N12", "note": "[Compound 1.1.63, (3S,11aR)-6-hydroxy-3-methyl-5,7-dioxo-N-(5,6,7,8-tetrahydro-4H-cyclohepta[d][1,3]thiazol-2-ylmethyl)-2,3,5,7,11,11a-hexahydro[1,3]oxazolo[3,2-a]pyrido[1,2-d]pyrazine-8-carboxamide]", "EC50": "> 30"},
      {"smiles": "Cc1nc2cc(CNC(=O)c3cn4c(c(O)c3=O)C(=O)N3[C@@H](C)CO[C@@H]3C4)ccc2n1C", "note": "[Compound 1.1.64, (3S,11aR)-6-hydroxy-3-methyl-N-[(1,2-dimethyl-1H-benzimidazol-5-yl)methyl]-5,7-dioxo-2,3,5,7,11,11a-hexahydro[1,3]oxazolo[3,2-a]pyrido[1,2-d]pyrazine-8-carboxamide]", "EC50": "> 30"},
      {"smiles": "C[C@H]1CO[C@@H]2Cn3cc(C(=O)NCc4ccnc5ccccc45)c(=O)c(O)c3C(=O)N12", "note": "[Compound 1.1.65, (3S,11aR)-6-hydroxy-3-methyl-N-(quinolin-4-ylmethyl)-5,7-dioxo-2,3,5,7,11,11a-hexahydro[1,3]oxazolo[3,2-a]pyrido[1,2-d]pyrazine-8-carboxamide]", "EC50": "< 2"},
      {"smiles": "C[C@@H]1CCO[C@H]2Cn3cc(C(=O)NCc4c(F)cc(F)nc4F)c(=O)c(O)c3C(=O)N12", "note": "[Compound 1.2.3, (4R,12aS)-7-hydroxy-4-methyl-N-[(2,4.6-trifluoropyridin-3-yl)methyl]-6,8-dioxo-3,4,6,8,12,12a-hexahydro-2H-pyrido[1′,2′:4,5]pyrazino[2,1-b][1,3]oxazine-9-carboxamide]", "EC50": "2 to 10"},
      {"smiles": "C[C@@H]1CCO[C@H]2Cn3cc(C(=O)NCc4c(F)cncc4F)c(=O)c(O)c3C(=O)N12", "note": "[Compound 1.2.4, (4R,12aS)-7-hydroxy-N-[(3,5-difluoropyridin-4-yl)methyl]-4-methyl-6,8-dioxo-3,4,6,8,12,12a-hexahydro-2H-pyrido[1′,2′:4,5]pyrazino[2,1-b][1,3]oxazine-9-carboxamide]", "EC50": "2 to 10"},
      {"smiles": "O=C(NCc1ccc(F)nc1F)c1cn2c(c(O)c1=O)C(=O)N1[C@H]3CC[C@H](C3)O[C@@H]1C2", "note": "[Compound 1.3.1, (2R,5S,13aR)-8-hydroxy-N-[(2,6-difluoropyridin-3-yl)methyl]-7,9-dioxo-2,3,4,5,7,9,13,13a-octahydro-2,5-methanopyrido[1′,2′:4,5]pyrazino[2,1-b][1,3]oxazepine-10-carboxamide]", "EC50": "2 to 10"},
      {"smiles": "O=C(NCc1c(F)cc(F)nc1F)c1cn2c(c(O)c1=O)C(=O)N1[C@H]3CC[C@H](C3)O[C@@H]1C2", "note": "[Compound 1.3.2, (2R,5S,13aR)-8-hydroxy-N-[(2,4,6-trifluoropyridin-3-yl)methyl]-7,9-dioxo-2,3,4,5,7,9,13,13a-octahydro-2,5-methanopyrido[1′,2′:4,5]pyrazino[2,1-b][1,3]oxazepine-10-carboxamide]", "EC50": "2 to 10"},
      {"smiles": "O=C(NCc1c(F)cncc1F)c1cn2c(c(O)c1=O)C(=O)N1[C@H]3CC[C@H](C3)O[C@@H]1C2", "note": "[Compound 1.3.3, (2R,5S,13aR)-8-hydroxy-N-[(3,5-difluoropyridin-4-yl)methyl]-7,9-dioxo-2,3,4,5,7,9,13,13a-octahydro-2,5-methanopyrido[1′,2′:4,5]pyrazino[2,1-b][1,3]oxazepine-10-carboxamide]", "EC50": "2 to 10"},
      {"smiles": "C[C@@H]1CO[C@@]23CCC[C@@H]2n2cc(C(=O)NCc4ccc(F)nc4F)c(=O)c(O)c2C(=O)N13", "note": "[Compound 2.1.1, (3aS,6R,13aS)-9-hydroxy-N-[(2,6-difluoropyridin-3-yl)methyl]-6-methyl-8,10-dioxo-1,2,3,5,6,8,10,13a-octahydrocyclopenta[b][1,3]oxazolo[3,2-a]pyrido[1,2-d]pyrazine-11-carboxamide]", "EC50": "2 to 10"},
      {"smiles": "C[C@@H]1CO[C@@]23CCC[C@@H]2n2cc(C(=O)NCc4c(F)cncc4F)c(=O)c(O)c2C(=O)N13", "note": "[Compound 2.1.2, (3aS,6R,13aS)-9-hydroxy-N-[(3,5-difluoropyridin-4-yl)methyl]-6-methyl-8,10-dioxo-1,2,3,5,6,8,10,13a-octahydrocyclopenta[b][1,3]oxazolo[3,2-a]pyrido[1,2-d]pyrazine-11-carboxamide]", "EC50": "2 to 10"},
      {"smiles": "C[C@@H]1CO[C@@]23CCC[C@@H]2n2cc(C(=O)NCc4c(F)cc(F)nc4F)c(=O)c(O)c2C(=O)N13", "note": "[Compound 2.1.3, (3aS,6R,13aS)-9-hydroxy-6-methyl-N-[(2,4,6-trifluoropyridin-3-yl)methyl]-8,10-dioxo-1,2,3,5,6,8,10,13a-octahydrocyclopenta[b][1,3]oxazolo[3,2-a]pyrido[1,2-d]pyrazine-11-carboxamide]", "EC50": "2 to 10"},
      {"smiles": "C[C@H]1CO[C@@]23CCC[C@@H]2n2cc(C(=O)NCc4ccc(F)nc4F)c(=O)c(O)c2C(=O)N13", "note": "[Compound 2.2.1, (3aS,6S,13aS)-9-hydroxy-N-[(2,6-difluoropyridin-3-yl)methyl]-6-methyl-8,10-dioxo-1,2,3,5,6,8,10,13a-octahydrocyclopenta[b][1,3]oxazolo[3,2-a]pyrido[1,2-d]pyrazine-11-carboxamide]", "EC50": "~10"},
      {"smiles": "C[C@H]1CO[C@@]23CCC[C@@H]2n2cc(C(=O)NCc4c(F)cc(F)nc4F)c(=O)c(O)c2C(=O)N13", "note": "[Compound 2.2.3, (3aS,6S,13aS)-9-hydroxy-6-methyl-N-[(2,4,6-trifluoropyridin-3-yl)methyl]-8,10-dioxo-1,2,3,5,6,8,10,13a-octahydrocyclopenta[b][1,3]oxazolo[3,2-a]pyrido[1,2-d]pyrazine-11-carboxamide]", "EC50": "2 to 10"}
    ]}
  ]
}
